Laboratory results reported in patent US8124834B2, “Use of active cytokinin synthase gene” (Riken, priority 2006, dated 2012).

Legend:
[1] = system: AtLOG 1, 2, 3, 4, 5, 7 and 8 proteins; assay: Confirmation of LOG enzyme activity of Arabidopsis thaliana LOG homolog proteins (substrate specificity); assay type: biochemical; details: purified AtLOG 1, 2, 3, 4, 5, 7 and 8 proteins, result stated for all together
Method: (§1) 3 μg of the recombinant LOG protein obtained in Example 1 was allowed to react with various types of cytokinins used as substrates. The following 8 types of cytokinin substrates were used: N^6-(delta-2-isopentenyl)adenine (iP), trans-zeatin (tZ), cis-zeatin (cZ), iP riboside (iPR), tZ riboside (tZR), cZ riboside (cZR), iPR 5′-monophosphate (iPRMP), and tZR 5′-monophosphate (tZRMP). As reaction conditions, 100 μl of a reaction solution containing 50 mM Tris-HCl, 1 mM MgCl2, and a 50 μM substrate, pH7 was incubated at 30° C. for 2 hours. Thereafter, 10 μl of 20% acetic acid was added to the reaction solution to terminate the reaction, and the reaction solution was then centrifuged at 15,000 rpm at a room temperature for 20 minutes. Thereafter, 20 μl of a supernatant was analyzed by liquid chromatography using HPLC (Waters Alliance 2695/PDA detector 2996). As a column, Symmetry C18, 3.5 μm, 2.1×100 mm cartridge (Waters) was used. For elution, solvent C (100% acetonitrile) and solvent D (2% acetic acid) were used.
The reaction specificity of the LOG protein to a nucleotide cytokinin form was analyzed. At the same time, the presence or absence of the reactivity of the LOG protein to AMP was also analyzed. […] The resultant was dissolved in 100 μl of 2% acetic acid, and the reaction product was then detected and quantified under the same conditions as those for the liquid chromatography of Example 2. […] In the case of iPRDP and iPRTP, the amount of a reaction solution was determined to be 100 μl, the mass of a protein used was determined to be 0.01 μg, and the reaction time was determined to be 2 minutes.
The enzyme activity of each of the purified AtLOG proteins was evaluated under the same reaction conditions as those of Example 2. […] In addition, the enzyme property of each AtLOG protein to iPRMP was determined in the same manner as in Example 5 (Table 4). In Table 4, the Km, Vmax and Kcat values were calculated based on a reaction under the optimal pH condition of each AtLOG protein.

LOG protein [2] = biological target: T1, LOG protein (Oryza sativa subsp. japonica, UniProt Q5ZC82); assay: Substrate specificity of LOG protein to nucleotide cytokinin forms and AMP; assay type: biochemical; set-up: the protein coding region of the LOG gene cDNA was inserted into pCOLD-I (TaKaRa), a His-tag protein expression vector; made in house; host or cells: E. coli BL21(DE3)[pG-Tf2]; details: 0.02 μg LOG protein, 100 μM substrate, pH 6.5, 4 minutes (iPRDP, iPRTP: 0.01 μg, 2 minutes)
T1 sequence (Q5ZC82 1-242): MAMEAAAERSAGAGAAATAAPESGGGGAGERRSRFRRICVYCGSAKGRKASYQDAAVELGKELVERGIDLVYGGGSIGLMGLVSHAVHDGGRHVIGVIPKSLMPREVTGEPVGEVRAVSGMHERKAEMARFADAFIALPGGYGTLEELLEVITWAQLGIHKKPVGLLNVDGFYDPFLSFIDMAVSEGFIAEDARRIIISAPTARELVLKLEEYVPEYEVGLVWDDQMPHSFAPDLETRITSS
Method: The reaction specificity of the LOG protein to a nucleotide cytokinin form was analyzed. […] The following 7 types of substrates were used: iPRMP, tZRMP, dihydrozeatin riboside 5′-monophosphate (DZRMP), cZR 5′-monophosphate (cZRMP), iPR 5′-diphosphate (iPRDP), iPR 5′-triphosphate (iPRTP), and AMP. The reaction conditions are as follows. 0.02 μg of the LOG protein was used for a single reaction, and it was reacted with a 100 μM substrate in 200 μl of a reaction solution containing 50 mM Tris-HCl, 1 mM MgCl2, 1 mM DTT, pH 6.5. Thereafter, 0 minute and 4 minutes after initiation of the reaction, 600 μl of cold acetone was added to the reaction solution to terminate the reaction. The reaction solution was left at rest at −80° C. for 30 minutes, and it was then centrifuged at 15,000 rpm for 20 minutes. Thereafter, a supernatant was dried using a centrifugal thickener. […] Only the injection amount was changed to 50 μl. In the case of iPRDP and iPRTP, the amount of a reaction solution was determined to be 100 μl, the mass of a protein used was determined to be 0.01 μg, and the reaction time was determined to be 2 minutes.

LOG protein [3] = biological target: T1, LOG protein; assay: Detection of enzyme activity of recombinant LOG protein with cytokinin substrates (HPLC); assay type: biochemical; set-up: the protein coding region of the LOG gene cDNA was inserted into pCOLD-I (TaKaRa), a His-tag protein expression vector; made in house; host or cells: E. coli BL21(DE3)[pG-Tf2]; details: 3 μg LOG protein, 50 μM substrate, pH7, 30° C., 2 hours, HPLC absorption at 270 nm
Method: as §1, with “The” for “3 μg of the recombinant LOG protein obtained in Example 1 was allowed to react with various types of cytokinins used as substrates. The”, “Thereafter, 20 μl of a supernatant was analyzed by liquid chromatography using HPLC (Waters Alliance 2695/PDA detector 2996). As a column, Symmetry C18, 3.5 μm, 2.1×100 mm cartridge (Waters) was used.” left out

LOG protein [4] = biological target: T1, LOG protein; assay: Measurement of Km value of LOG protein to iPRMP and tZRMP; assay type: biochemical; set-up: the protein coding region of the LOG gene cDNA was inserted into pCOLD-I (TaKaRa), a His-tag protein expression vector; made in house; host or cells: E. coli BL21(DE3)[pG-Tf2]; details: substrate 5-100 μM, 0.02 μg LOG protein, pH 6.5
Method: In order to obtain the Km value of the LOG protein to typical substrates iPRMP and tZRMP, the following experiment was carried out. 0.02 μg of LOG protein was used for a single reaction, and it was reacted with a substrate in a substrate concentration of each of 5, 8, 15, 30 and 100 μM in 200 μl of a reaction solution containing 50 mM Tris-HCl, 1 mM MgCl2, 1 mM DTT, pH 6.5. Thereafter, 0 minute, 2 minutes and 4 minutes after initiation of the reaction, 600 μl of cold acetone was added to the reaction solution to terminate the reaction. The reaction solution was left at rest at −80° C. for 30 minutes, and it was then centrifuged at 15,000 rpm for 20 minutes. Thereafter, a supernatant was dried using a centrifugal thickener. The resultant was dissolved in 100 μl of 2% acetic acid, and a reaction product was then detected and quantified under the same conditions as those for the liquid chromatography of Example 2. Only the injection amount was changed to 50 μl. The aforementioned experiment was carried out three times, and the Km value was calculated.

LOG protein [5] = biological target: T1, LOG protein; details: 3 μg LOG protein, 5 mM L-lysine, pH 6.0, 40° C., 60 minutes, HPLC absorption at 226 nm
From the text: As a column, Symmetry C18, 3.5 μm, 2.1×100 mm cartridge (Waters) was used.

| Structure (SMILES) | reactivity of AtLOG proteins to the substrate (substrate specificity) [1] | reactivity of LOG protein to the substrate (substrate specificity) (LOG protein [2]) | reactivity of the substrate with recombinant LOG protein (conversion to base form) (LOG protein [3]) | specific activity of the LOG protein (LOG protein [4]) | reactivity of LOG protein to lysine (LOG protein [5]) |
| --- | --- | --- | --- | --- | --- |
| Nc1ncnc2c1ncn2[C@@H]1O[C@H](COP(=O)(O)O)[C@@H](O)[C@H]1O [AMP] | almost no reactivity | no reactivity | – | – | – |
| NCCCC[C@H](N)C(=O)O [lysine, L-lysine] | – | – | – | – | did not exhibit reactivity |

More lines, main results first:

| reactivity of AtLOG proteins to the substrate (substrate specificity) [1] | reactivity of LOG protein to the substrate (substrate specificity) (LOG protein [2]) | reactivity of the substrate with recombinant LOG protein (conversion to base form) (LOG protein [3]) | specific activity of the LOG protein (LOG protein [4]) | Structure (SMILES) | reactivity of LOG protein to lysine (LOG protein [5]) |
| --- | --- | --- | --- | --- | --- |
| almost no reactivity | no reactivity | – | – | CC(C)=CCNc1ncnc2c1ncn2[C@@H]1O[C@H](COP(=O)(O)OP(=O)(O)O)[C@@H](O)[C@H]1O [iPRDP, iPR 5′-diphosphate] | – |
| – | uses as a substrate | completely converted | 5.6 μmol/min^−1/mg^−1 protein | CC(C)=CCNc1ncnc2c1ncn2[C@@H]1O[C@H](COP(=O)(O)O)[C@@H](O)[C@H]1O [iPRMP, isopentenyladenine riboside 5′-monophosphate] | – |
| almost no reactivity | no reactivity | – | – | CC(C)=CCNc1ncnc2c1ncn2[C@@H]1O[C@H](COP(=O)(O)OP(=O)(O)OP(=O)(O)O)[C@@H](O)[C@H]1O [iPRTP, iPR 5′-triphosphate] | – |
